Measured values taken from paper PMC8329300, “X-ray crystallography reveals molecular recognition mechanism for sugar binding in a melibiose transporter MelB” (Communications Biology, 2021).

Assays:
[1] = target: T1, D59C MelBSt (Salmonella typhimurium, UniProt P30878, D59C); assay: Melibiose fermentation on MacConkey agar (DW2 transformants); type: cell-based; conditions: 30 mM melibiose, 37 °C
T1 construct: Cys scanning mutagenesis for the full-length MelBSt; His10 (C); made in house; host or cells: E. coli DW2
T1 sequence (P30878 whole entry D59C): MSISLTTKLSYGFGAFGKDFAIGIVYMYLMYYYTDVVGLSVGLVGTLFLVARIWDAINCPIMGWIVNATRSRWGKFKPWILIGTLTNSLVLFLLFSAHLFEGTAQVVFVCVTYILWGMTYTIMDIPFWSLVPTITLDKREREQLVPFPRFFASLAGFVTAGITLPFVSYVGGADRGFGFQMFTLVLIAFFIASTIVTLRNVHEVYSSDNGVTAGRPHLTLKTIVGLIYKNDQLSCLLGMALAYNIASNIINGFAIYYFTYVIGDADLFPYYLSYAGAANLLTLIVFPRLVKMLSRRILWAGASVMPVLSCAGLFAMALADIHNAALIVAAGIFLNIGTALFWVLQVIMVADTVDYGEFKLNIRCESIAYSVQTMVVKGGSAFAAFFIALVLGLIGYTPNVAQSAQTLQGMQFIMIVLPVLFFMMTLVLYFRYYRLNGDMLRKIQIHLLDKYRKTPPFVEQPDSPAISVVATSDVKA
Experimental: Fig. 1 Functional characterizations. a [^3H] Melibiose transport time course with intact cells. E. coli DW2 strain (melB^−, lacZ^−Y^−) expressed with the WT, D59C, or D59A MelBSt mutants were subjected to [^3H]melibiose active transport assay at 0.4 mM and 10 mCi/mmol in the presence of 20 mM or 100 mM NaCl or LiCl by a fast filtration method. Inset, melibiose fermentation assay. Transformants with DW2 strain were plated on MacConkey agar plates containing 30 mM melibiose as the sole carbohydrate source and pH sensor neutral red, and incubated at 37 °C for 16–18 h before imaging. Number of tests = 3, from different batch of cells or duplicate measurements from same batch of sample. b Ligand binding by Trp→dansyl galactoside (D^2G) FRET assay. Purified proteins at 1 μM concentration in 20 mM Tris-HCl, pH 7.5, 100 mM CholCl, 10% glycerol, and 0.03% UDM were subjected to steady-state fluorescence measurements as described in Methods. On the time-trace, 1.8 μL of 1 mM D^2G at 10 μM was added into 180 μL of protein solutions at 1-min point, followed by supplying 10 μL of 5 mM DDMB or 5 mM α-NPG to displace the bound D^2G. For testing Na^+ or Li^+ binding, they are added into the solution before displacement with the second sugar. The structure of DDMB or α-NPG is shown in a chair form, and the carbon positions are labeled. Glycosidic bonds are indicated by arrows. […]

[2] = target: T2, MelBSt D59C (Salmonella typhimurium, UniProt P30878, D59C); assay: [3H]Melibiose transport time course with DW2 intact cells expressing MelBSt D59C; type: cell-based; conditions: 0.4 mM [3H]melibiose
T2 construct: Cys scanning mutagenesis for the full-length MelBSt; expressed in transfected cells; host or cells: E. coli DW2 (melA+, melB-, lacZ-Y-)
T2 sequence (P30878 whole entry D59C): as above
Experimental: (§1) Fig. 1 Functional characterizations. a [^3H] Melibiose transport time course with intact cells. E. coli DW2 strain (melB^−, lacZ^−Y^−) expressed with the WT, D59C, or D59A MelBSt mutants were subjected to [^3H]melibiose active transport assay at 0.4 mM and 10 mCi/mmol in the presence of 20 mM or 100 mM NaCl or LiCl by a fast filtration method. Inset, melibiose fermentation assay. Transformants with DW2 strain were plated on MacConkey agar plates containing 30 mM melibiose as the sole carbohydrate source and pH sensor neutral red, and incubated at 37 °C for 16–18 h before imaging. Number of tests = 3, from different batch of cells or duplicate measurements from same batch of sample. b Ligand binding by Trp→dansyl galactoside (D^2G) FRET assay. Purified proteins at 1 μM concentration in 20 mM Tris-HCl, pH 7.5, 100 mM CholCl, 10% glycerol, and 0.03% UDM were subjected to steady-state fluorescence measurements as described in Methods. On the time-trace, 1.8 μL of 1 mM D^2G at 10 μM was added into 180 μL of protein solutions at 1-min point, followed by supplying 10 μL of 5 mM DDMB or 5 mM α-NPG to displace the bound D^2G. For testing Na^+ or Li^+ binding, they are added into the solution before displacement with the second sugar. The structure of DDMB or α-NPG is shown in a chair form, and the carbon positions are labeled. Glycosidic bonds are indicated by arrows. Both are α-galactosides containing a substituent at the anomeric carbon-1. The data were from duplicate measurements.
(§2) The overexpression of MelBSt was carried out in the E. coli DW2 strain (melA^+, melB^−, and lacZ^−Y^−) from a constitutive expression plasmid pK95ΔAH/MelBSt/CHis10[9],[28],[33]. The D59C or D59A mutant with Cys or Ala at the position 59, respectively, was constructed previously[9] or in this study by QuikChange Site-Directed Mutagenesis kit and confirmed by DNA sequencing analysis. E. coli DW2 cells containing a given plasmid were grown in Luria-Bertani (LB) broth (5 g yeast extract and 10 g tryptone per liter with 171 mM NaCl) with 100 mg/L of ampicillin in a 37 °C shaker. The overnight cultures were diluted by 5% with LB broth supplemented with 0.5% glycerol and 100 mg/L of ampicillin, and constitutive overexpression was obtained by shaking at 30 °C for another 5 h.
(§3) E. coli DW2 cells expressing MelBSt were washed with 100 mM KPi, pH 7.5, to remove Na^+ contamination as described previously. The cell pellets were resuspended with the assay buffer (100 mM KPi, pH 7.5, 10 mM MgSO4) and adjusted to A420 of 10 (∼0.7 mg protein/ml). Using a fast filtration, transport time course at 0.4 mM melibiose (at specific activity of 10 mCi/mmol) was carried out in the absence or presence of NaCl or LiCl at 20 mM or 100 mM, respectively, and intracellular melibiose was determined as described previously.

[3] = system: E. coli DW2 strain (melB−, lacZ−Y−); assay: [3H]Melibiose transport time course with DW2 intact cells; type: cell-based, Escherichia coli; parameters: unit not given here; conditions: 0.4 mM [3H]melibiose
Experimental: as §1, §2, §3

Q: For `OC[C@H]1O[C@H](OCC2O[C@@H](O)[C@H](O)[C@@H](O)[C@@H]2O)[C@H](O)[C@@H](O)[C@H]1O` (stereo partly drawn) [Melibiose], which “melibiose fermentation (colony colour)” value [1] is on record?
A: normal melibiose fermentation with red colonies

Q: What about the Melibiose transport ([2]; H+, Time 0.08) of the same compound?
A: 2.90

Q: And the Melibiose transport ([2]; H+, Time 0.17)?
A: 4.95

Q: What about the Melibiose transport ([2]; H+, Time 0.50) of the same compound?
A: 7.21

Q: What about the Melibiose transport ([2]; H+, Time 1.00) of the same compound?
A: 7.87

Q: What about the Melibiose transport ([2]; H+, Time 2.00) of the same compound?
A: 9.68

Q: And the Melibiose transport ([2]; H+, Time 5.00)?
A: 7.94

Q: What about the Melibiose transport ([2]; H+, Time 10.00) of the same compound?
A: 6.75

Q: And the Melibiose transport ([2]; H+, Time 30.00)?
A: 4.22

Q: What about the Melibiose transport ([2]; Li+, 20 mM, Time 0.08) of the same compound?
A: 4.23

Q: And the Melibiose transport ([2]; Li+, 20 mM, Time 0.17)?
A: 7.46

Q: What about the Melibiose transport ([2]; Li+, 20 mM, Time 0.50) of the same compound?
A: 9.40

Q: What about the Melibiose transport ([2]; Li+, 20 mM, Time 1.00) of the same compound?
A: 8.14

Q: What about the Melibiose transport ([2]; Li+, 20 mM, Time 2.00) of the same compound?
A: 8.43

Q: And the Melibiose transport ([2]; Li+, 20 mM, Time 5.00)?
A: 9.92

Q: And the Melibiose transport ([2]; Li+, 20 mM, Time 10.00)?
A: 9.02

Q: And the Melibiose transport ([2]; Li+, 20 mM, Time 30.00)?
A: 7.58

Q: And the Melibiose transport ([2]; Li+, 100 mM, Time 0.08)?
A: 5.34

Q: And the Melibiose transport ([2]; Li+, 100 mM, Time 0.17)?
A: 7.70

Q: What about the Melibiose transport ([2]; Li+, 100 mM, Time 0.50) of the same compound?
A: 7.46

Q: What about the Melibiose transport ([2]; Li+, 100 mM, Time 1.00) of the same compound?
A: 5.16

Q: And the Melibiose transport ([2]; Li+, 100 mM, Time 2.00)?
A: 7.88

Q: And the Melibiose transport ([2]; Li+, 100 mM, Time 5.00)?
A: 5.54

Q: And the Melibiose transport ([2]; Li+, 100 mM, Time 10.00)?
A: 7.56

Q: And the Melibiose transport ([2]; Li+, 100 mM, Time 30.00)?
A: 11.83

Q: What about the Melibiose transport ([2]; Na+, 20 mM, Time 0.08) of the same compound?
A: 4.91

Q: What about the Melibiose transport ([2]; Na+, 20 mM, Time 0.17) of the same compound?
A: 5.04

Q: And the Melibiose transport ([2]; Na+, 20 mM, Time 0.50)?
A: 6.31

Q: What about the Melibiose transport ([2]; Na+, 20 mM, Time 1.00) of the same compound?
A: 7.41

Q: And the Melibiose transport ([2]; Na+, 20 mM, Time 2.00)?
A: 16.16

Q: And the Melibiose transport ([2]; Na+, 20 mM, Time 5.00)?
A: 8.09

Q: What about the Melibiose transport ([2]; Na+, 20 mM, Time 10.00) of the same compound?
A: 6.24

Q: And the Melibiose transport ([2]; Na+, 20 mM, Time 30.00)?
A: 9.30

Q: And the Melibiose transport ([2]; Na+, 100 mM, Time 0.08)?
A: 0.60

Q: What about the Melibiose transport ([2]; Na+, 100 mM, Time 0.17) of the same compound?
A: 4.32

Q: What about the Melibiose transport ([2]; Na+, 100 mM, Time 0.50) of the same compound?
A: 10.86

Q: And the Melibiose transport ([2]; Na+, 100 mM, Time 1.00)?
A: 12.92

Q: And the Melibiose transport ([2]; Na+, 100 mM, Time 2.00)?
A: 6.61

Q: And the Melibiose transport ([2]; Na+, 100 mM, Time 5.00)?
A: 1.42

Q: And the Melibiose transport ([2]; Na+, 100 mM, Time 10.00)?
A: 5.04

Q: And the Melibiose transport ([2]; Na+, 100 mM, Time 30.00)?
A: 9.00

Q: And the Melibiose transport ([3]; H+, Time 0.08333)?
A: 5.1051

Q: And the Melibiose transport ([3]; H+, Time 0.16667)?
A: 0.0051

Q: And the Melibiose transport ([3]; H+, Time 0.5)?
A: 5.3907

Q: And the Melibiose transport ([3]; H+, Time 1)?
A: 1.8156

Q: What about the Melibiose transport ([3]; H+, Time 2) of the same compound?
A: 6.1659

Q: And the Melibiose transport ([3]; H+, Time 5)?
A: 3.5343

Q: What about the Melibiose transport ([3]; H+, Time 10) of the same compound?
A: 0.765

Q: And the Melibiose transport ([3]; H+, Time 30)?
A: 0.4743

Q: And the Melibiose transport ([3]; Li+, 20 mM, Time 0.08333)?
A: 4.9419

Q: What about the Melibiose transport ([3]; Li+, 20 mM, Time 0.16667) of the same compound?
A: 5.658

Q: What about the Melibiose transport ([3]; Li+, 20 mM, Time 0.5) of the same compound?
A: 3.542

Q: And the Melibiose transport ([3]; Li+, 20 mM, Time 1)?
A: 2.349

Q: And the Melibiose transport ([3]; Li+, 20 mM, Time 2)?
A: 6.918

Q: What about the Melibiose transport ([3]; Li+, 20 mM, Time 5) of the same compound?
A: 4.664

Q: What about the Melibiose transport ([3]; Li+, 20 mM, Time 10) of the same compound?
A: 5.3448

Q: What about the Melibiose transport ([3]; Li+, 20 mM, Time 30) of the same compound?
A: 4.1259

Q: And the Melibiose transport ([3]; Li+, 100 mM, Time 0.08333)?
A: 3.0914

Q: And the Melibiose transport ([3]; Li+, 100 mM, Time 0.16667)?
A: 1.7168

Q: What about the Melibiose transport ([3]; Li+, 100 mM, Time 0.5) of the same compound?
A: 6.0378

Q: What about the Melibiose transport ([3]; Li+, 100 mM, Time 1) of the same compound?
A: 1.9198

Q: And the Melibiose transport ([3]; Li+, 100 mM, Time 2)?
A: 3.77

Q: And the Melibiose transport ([3]; Li+, 100 mM, Time 5)?
A: 5.9682

Q: And the Melibiose transport ([3]; Li+, 100 mM, Time 10)?
A: 7.743

Q: And the Melibiose transport ([3]; Li+, 100 mM, Time 30)?
A: -0.2436

Q: And the Melibiose transport ([3]; Na+, 20 mM, Time 0.08333)?
A: 5.1051

Q: And the Melibiose transport ([3]; Na+, 20 mM, Time 0.16667)?
A: 0.0051

Q: And the Melibiose transport ([3]; Na+, 20 mM, Time 0.5)?
A: 5.3907

Q: What about the Melibiose transport ([3]; Na+, 20 mM, Time 1) of the same compound?
A: 1.8156

Q: And the Melibiose transport ([3]; Na+, 20 mM, Time 2)?
A: 6.1659

Q: And the Melibiose transport ([3]; Na+, 20 mM, Time 5)?
A: 3.5343

Q: And the Melibiose transport ([3]; Na+, 20 mM, Time 10)?
A: 0.765

Q: And the Melibiose transport ([3]; Na+, 20 mM, Time 30)?
A: 0.4743

Q: And the Melibiose transport ([3]; Na+, 100 mM, Time 0.08333)?
A: 0.1281

Q: And the Melibiose transport ([3]; Na+, 100 mM, Time 0.16667)?
A: 1.6531

Q: What about the Melibiose transport ([3]; Na+, 100 mM, Time 0.5) of the same compound?
A: 2.6962

Q: And the Melibiose transport ([3]; Na+, 100 mM, Time 1)?
A: 0.671

Q: What about the Melibiose transport ([3]; Na+, 100 mM, Time 2) of the same compound?
A: -3.3611

Q: What about the Melibiose transport ([3]; Na+, 100 mM, Time 5) of the same compound?
A: 0.2867

Q: What about the Melibiose transport ([3]; Na+, 100 mM, Time 10) of the same compound?
A: 0.0793

Q: What about the Melibiose transport ([3]; Na+, 100 mM, Time 30) of the same compound?
A: -2.3912
